The text below walks through data of ChEMBL document CHEMBL3745650, “Anti-inflammatory properties of quebecol and its derivatives” (Bioorg Med Chem Lett, 2016).

Series [1] can be described thus: Antiinflammatory activity in PMA-differentiated human U937 cells assessed as inhibition of LPS-stimulated TNF-alpha secretion at 250 uM preincubated for 2 hrs followed by LPS-stimulation measured after 24 hrs by ELISA relative to control. Particulars: U-937. The class given is functional.
A short description of series [2]: Antiinflammatory activity in PMA-differentiated human U937 cells assessed as inhibition of LPS-stimulated IL-1beta secretion at 125 uM preincubated for 2 hrs followed by LPS-stimulation measured after 24 hrs by ELISA relative to control. The series is classed as functional. Particulars: U-937.
A short description of series [3]: Antiinflammatory activity in PMA-differentiated human U937 cells assessed as inhibition of LPS-stimulated IL-1beta secretion at 250 uM preincubated for 2 hrs followed by LPS-stimulation measured after 24 hrs by ELISA relative to control. The series is classed as functional. To be noted: U-937.
The nature of series [4]: Cytotoxicity against PMA-differentiated human U937 macrophages assessed as reduction in cell viability after 24 hrs by MTT assay. The class given is cell-based. To be noted: u-937, 24 h.
Series [5] in a line: Antiinflammatory activity in PMA-differentiated human U937 cells assessed as inhibition of LPS-stimulated IL-6 secretion at 250 uM preincubated for 2 hrs followed by LPS-stimulation measured after 24 hrs by ELISA relative to control. To be noted: U-937. The series is classed as functional.
The nature of series [6]: Antiinflammatory activity in PMA-differentiated human U937 cells assessed as inhibition of LPS-stimulated IL-8 secretion at 500 uM preincubated for 2 hrs followed by LPS-stimulation measured after 24 hrs by ELISA relative to control. The class given is functional. To be noted: U-937.
Series [7] can be described thus: Antiinflammatory activity in PMA-differentiated human U937 cells assessed as inhibition of LPS-stimulated IL-6 secretion at 125 uM preincubated for 2 hrs followed by LPS-stimulation measured after 24 hrs by ELISA relative to control. The class given is functional. To be noted: U-937.
Series [8] in a line: Antiinflammatory activity in PMA-differentiated human U937 cells assessed as inhibition of LPS-stimulated IL-8 secretion at 250 uM preincubated for 2 hrs followed by LPS-stimulation measured after 24 hrs by ELISA relative to control. The series is classed as functional. Particulars: U-937.
Series [9] in a line: Antiinflammatory activity in PMA-differentiated human U937 cells assessed as inhibition of LPS-stimulated IL-8 secretion at 125 uM preincubated for 2 hrs followed by LPS-stimulation measured after 24 hrs by ELISA relative to control. The series is classed as functional. To be noted: U-937.
A short description of series [10]: Antiinflammatory activity in human U937-3xkB-luc cells assessed as inhibition of LPS-induced NFkappaB activation at 100 uM preincubated for 30 mins followed by LPS-stimulation measured after 6 hrs by luciferase assay relative to control. The series is classed as functional. To be noted: U-937.
Series [11] in a line: Antiinflammatory activity in PMA-differentiated human U937 cells assessed as inhibition of LPS-stimulated TNF-alpha secretion at 125 uM preincubated for 2 hrs followed by LPS-stimulation measured after 24 hrs by ELISA relative to control. The series is classed as functional. To be noted: U-937.
The nature of series [12]: Antiinflammatory activity in PMA-differentiated human U937 cells assessed as inhibition of LPS-stimulated IL-6 secretion at 500 uM preincubated for 2 hrs followed by LPS-stimulation measured after 24 hrs by ELISA relative to control. The series is classed as functional. To be noted: U-937.
Series [13] is described as follows: Antiinflammatory activity in human U937-3xkB-luc cells assessed as inhibition of LPS-induced NFkappaB activation at 5 uM preincubated for 30 mins followed by LPS-stimulation measured after 6 hrs by luciferase assay relative to control. The class given is functional. Particulars: U-937.
Series [14] can be described thus: Antiinflammatory activity in PMA-differentiated human U937 cells assessed as inhibition of LPS-stimulated TNF-alpha secretion at 500 uM preincubated for 2 hrs followed by LPS-stimulation measured after 24 hrs by ELISA relative to control. The class given is functional. Particulars: U-937.
A short description of series [15]: Antiinflammatory activity in PMA-differentiated human U937 cells assessed as inhibition of LPS-stimulated IL-1beta secretion at 500 uM preincubated for 2 hrs followed by LPS-stimulation measured after 24 hrs by ELISA relative to control. The series is classed as functional. Particulars: U-937.
Series [16] in a line: Antiinflammatory activity in human U937-3xkB-luc cells assessed as inhibition of LPS-induced NFkappaB activation at 20 uM preincubated for 30 mins followed by LPS-stimulation measured after 6 hrs by luciferase assay relative to control. Particulars: U-937. The series is classed as functional.
A short description of series [17]: Antiinflammatory activity in PMA-differentiated human U937 cells assessed as inhibition of LPS-stimulated IL-6 secretion at 62.5 uM preincubated for 2 hrs followed by LPS-stimulation measured after 24 hrs by ELISA relative to control. The series is classed as functional. Particulars: U-937.
Series [18] can be described thus: Antiinflammatory activity in PMA-differentiated human U937 cells assessed as inhibition of LPS-stimulated IL-8 secretion at 62.5 uM preincubated for 2 hrs followed by LPS-stimulation measured after 24 hrs by ELISA relative to control. The series is classed as functional. Particulars: U-937.
Series [19] can be described thus: Antiinflammatory activity in PMA-differentiated human U937 cells assessed as inhibition of LPS-stimulated TNF-alpha secretion at 62.5 uM preincubated for 2 hrs followed by LPS-stimulation measured after 24 hrs by ELISA relative to control. To be noted: U-937. The series is classed as functional.
The nature of series [20]: Antiinflammatory activity in PMA-differentiated human U937 cells assessed as inhibition of LPS-stimulated IL-1beta secretion at 62.5 uM preincubated for 2 hrs followed by LPS-stimulation measured after 24 hrs by ELISA relative to control. To be noted: U-937. The class given is functional.

A value given as a limit tells only on which side of the number the result lay.

`COc1cc(C(O)C(=O)O)ccc1O` (stereo unspecified): the inhibition at 250 µM in series [1] turned out to be 4.6%; in [3] it was 8%; in series [5] it was 0%; in series [8] it was 0%. Moreover, the inhibition at 125 µM in series [2] was found to be 7.4%; in series [7], 0%; in series [9], 0%; in series [11] it was 0%. Further, in series [4], the Activity is over 1000 µM. In addition, the inhibition at 500 µM in series [6] was determined as 0%; in series [12] it was 0%; in series [14] it was 0%; in [15] it was 7.2%. Moreover, the inhibition at 100 µM in series [10] was found to be 16.3%. Besides, the inhibition at 5 µM in [13] turned out to be 0%. The inhibition at 20 µM in [16] amounted to 5.7%.

On to `CCOC(=O)C(O)c1ccc(O)c(OC)c1` (stereo unspecified), for which the inhibition at 250 µM in [1], in series [3], in series [5] and in [8] was 0% throughout. In addition, the inhibition at 125 µM in series [2] stood at 4%; in series [7], 0%; in series [9] it was 0%; in series [11], 0%. Moreover, in series [4], the Activity is over 1000 µM. Also, the inhibition at 500 µM in series [6], in [12], in series [14] and in [15] was 0% in each case. Also, in [10], the inhibition at 100 µM came out at 0%. Besides, in [13], the inhibition at 5 µM was determined as 16.4%. Moreover, in series [16], the inhibition at 20 µM was found to be 6.5%.

As for `CCOC(=O)C(c1ccc(O)c(OC)c1)C(c1ccc(O)c(OC)c1)c1ccc(O)c(OC)c1` (stereo unspecified), the inhibition at 250 µM came to 100% in series [1], 10.9% in series [3], 99.8% in series [5] and 95% in series [8]. The inhibition at 125 µM in series [2] was 1.2%; in series [7], 89.9%; in [9], 94.9%; in [11], 15.7%. In addition, the inhibition at 62.5 µM in series [17] is 4.8%; in series [18] it was 0%; in [19] it was 8.5%; in series [20], 0%. Moreover, the Activity in [4] stood at 125 µM. The inhibition at 500 µM was 99.9% in series [6], 99.9% in series [12], 100% in [14] and 91.4% in series [15]. In addition, the inhibition at 100 µM in series [10] is 74.7%. In addition, in series [13], the inhibition at 5 µM came to 24%. Also, the inhibition at 20 µM in series [16] was found to be 31.2%.

As to `CCOC(=O)Cc1ccc(O)c(OC)c1`, the inhibition at 250 µM in [1] turned out to be 1.1%; in series [3], 5.7%; in series [5] it was 0%; in series [8], 0%. The inhibition at 125 µM in series [2] worked out at 2.7%; in series [7] it was 0%; in [9], 0%; in series [11], 0.1%. Moreover, in series [4], the Activity was over 1000 µM. Moreover, the inhibition at 500 µM in series [6] is 0%; in [12] it was 0%; in [14] it was 6.9%; in [15], 0%. For the same compound, in [10], the inhibition at 100 µM was 14.6%. Moreover, the inhibition at 5 µM in [13] was determined as 13.6%. In addition, the inhibition at 20 µM in [16] came out at 21.8%.

Turning to `COc1cc(CCO)ccc1O`, the inhibition at 250 µM in [1] is 5.2%; in series [3], 17.4%; in [5], 0%; in [8], 0%. Besides, the inhibition at 125 µM in series [2] amounted to 24.4%; in series [7] it was 0%; in series [9], 0%; in series [11], 6%. Also, in series [4], the Activity was over 1000 µM. For the same compound, the inhibition at 500 µM in series [6] worked out at 0%; in series [12], 0%; in [14], 0%; in [15], 11.3%. Further, the inhibition at 100 µM in series [10] is 8.3%. In addition, the inhibition at 5 µM in series [13] is 0%. In series [16], the inhibition at 20 µM was determined as 2.6%.

Turning to `COc1cc(Cc2ccc(O)c(OC)c2)ccc1O`, the inhibition at 250 µM in series [1] turned out to be 15%; in series [3], 33.4%; in series [5], 62.3%; in series [8], 15%. Besides, the inhibition at 125 µM in [2] was determined as 3%; in [7] it was 4.3%; in series [9], 7.1%; in series [11], 7.6%. Also, the Activity in series [4] was 500 µM. Moreover, the inhibition at 500 µM was determined as 26.9% in series [6], 95.3% in series [12], 72.2% in series [14] and 49.2% in series [15]. Besides, the inhibition at 100 µM in [10] was 43.1%. For the same compound, in series [13], the inhibition at 5 µM was 11%. The inhibition at 20 µM in series [16] was 28.9%.

In the case of `COc1cc(CC(=O)O)ccc1O` [HOMOVANILLIC ACID], the inhibition at 250 µM in series [1] was found to be 0%; in series [3], 5.7%; in [5] it was 0%; in [8], 0%. Also, the inhibition at 125 µM in series [2] was found to be 5.2%; in series [7], 0%; in series [9], 0%; in series [11], 0%. For the same compound, the Activity in series [4] was over 1000 µM. Besides, the inhibition at 500 µM in series [6] was 0%; in series [12], 0%; in series [14], 0%; in [15] it was 3.6%. Moreover, the inhibition at 100 µM in series [10] was 22.9%. Further, the inhibition at 5 µM in series [13] came out at 24%. Further, the inhibition at 20 µM in series [16] was found to be 16.3%.

For the compound `CCOC(=O)C(=C(c1ccc(O)c(OC)c1)c1ccc(O)c(OC)c1)c1ccc(O)c(OC)c1`, the inhibition at 250 µM came out at 100% in series [1], 85.2% in series [3], 99.9% in series [5] and 99.7% in [8]. Also, the inhibition at 125 µM was found to be 26.2% in series [2], 97.2% in series [7], 99.5% in series [9] and 92.3% in [11]. Further, the inhibition at 62.5 µM in [17] came out at 27.3%; in [18] it was 22.7%; in series [19], 15.9%; in series [20] it was 0%. Further, the Activity in series [4] was 62.5 µM. Also, the inhibition at 500 µM turned out to be 99.9% in [6], 99.9% in series [12], 100% in series [14] and 83.9% in series [15]. In addition, the inhibition at 100 µM in series [10] amounted to 79.9%. In addition, in series [13], the inhibition at 5 µM was determined as 12.8%. In series [16], the inhibition at 20 µM was determined as 15.9%.
